Assays:
Type in all cases: in vivo
[1] = tested on: Erysiphe graminis tritici (powdery mildew); assay: Test 1 greenhouse foliar spray screen, powdery mildew on wheat; settings: disease control rating, foliar spray on wheat, 400 ppm (+++ at 100 ppm)
[2] = tested on: Septoria tritici (leaf blotch); assay: Test 1 greenhouse foliar spray screen, leaf blotch on wheat; settings: disease control rating, foliar spray on wheat, 400 ppm (+++ at 100 ppm)
[3] = tested on: southern armyworm (Spodopetra eridania Cramer); assay: Mite/insect screen, SAW; settings: percent mortality, SAW; for mortality at 200 ppm / SAW RESULTS %: SM & MA RATE 200 PPM
Summary of the method: (§1)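 First, each compound was dissolved in an emulsifier-containing acetone/alcohol mixture and diluted with water. Next, leaves were sprayed until runoff and left to dry for an hour. For southern armyworm, two excised uninfested leaves went into a Petri dish with larvae; percent mortality followed standard exposure periods.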

[4] = tested on: Venturia inaequalis (apple scab); assay: Test 1 greenhouse foliar spray screen, apple scab on apple seedling; settings: disease control rating, foliar spray on apple seedling, 400 ppm (+++ at 100 ppm)
[5] = tested on: Cercospora beticola (leaf spot); assay: Test 1 greenhouse foliar spray screen, leaf spot on sugar beet; settings: disease control rating, foliar spray on sugar beet, 400 ppm (+++ at 100 ppm)
[6] = tested on: Pyricularia oryzae (rice blast); assay: whole plant or invertebrate; settings: disease control rating, foliar spray on rice, 400 ppm (+++ at 100 ppm)
[7] = tested on: Puccinia recondita tritici (leaf rust); assay: Test 1 greenhouse foliar spray screen, leaf rust on wheat; settings: disease control rating, foliar spray on wheat, 400 ppm (+++ at 100 ppm)
[8] = tested on: Twospotted spider mites (Tetranychus urticae Koch); assay: Mite/insect screen, SM; settings: for mortality at 200 ppm / SM RESULTS %: SM & MA RATE 200 PPM; for activity as miticides: summary statement in the description
Summary of the method: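 Read-out: percent mortality after standard exposure periods. Test solutions were water dilutions of compound dissolved in acetone/alcohol (50:50) with emulsifier blends; leaves were sprayed to runoff on both surfaces and air-dried for one hour before exposure.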

[9] = tested on: melon aphids (Aphis gossypii Glover); assay: Mite/insect screen, MA; settings: percent mortality, SAW; for mortality at 200 ppm / MA RESULTS %: SM & MA RATE 200 PPM
Summary of the method: as §1

corn rootworm = assay: Mite/insect screen, CRW; settings: percent mortality; for mortality at 12 ppm / CRW RESULTS %: CRW RATE 12.00 PPM
Summary of the method: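 Stock in acetone:alcohol 1:1 + TOXIMUL R 23 g/L + TOXIMUL S 13 g/L; diluted with water to indicated concentrations; mortality (%) after standard exposure.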

[10] = tested on: Pseudoperonospora cubensis (downy mildew); assay: Test 1 greenhouse foliar spray screen, downy mildew on squash; settings: for DOWN MDEW: disease control rating, foliar spray on squash, 400 ppm (+++ at 100 ppm)
[11] = tested on: Botrytis cinerea (gray mold); assay: Test 1 greenhouse foliar spray screen, gray mold on grape berries; settings: disease control rating, spray on grape berries, 400 ppm (+++ at 100 ppm)
[12] = Spodoptera eridania, read-out: SAW RESULTS %
[13] = Tetranychus urticae, percent mortality, SAW, read-out: SM RESULTS %
[14] = Aphis gossypii, read-out: MA RESULTS %

Row | SMILES | POWD MDEW [1] | LEAF BLOT [2] | mortality at 200 ppm [3, 12] [%] | APPL SCAB [4] | LEAF SPOT [5] | RICE BLAST [6] | LEAF RUST [7] | mortality at 200 ppm [8, 13] [%] | mortality at 200 ppm [9, 14] [%] | mortality at 12 ppm (corn rootworm; read-out: CRW RESULTS %) [%] | DOWN MDEW [10] | GRAY MOLD [11] | further results
1 | Cc1ccc2c(NCCc3ccc(Cl)cc3)ccnc2c1C [Example 88, N-[2-(4-chlorophenyl)ethyl]-7,8-dimethyl-4-quinolinamine] | - (0-19% control at 400 ppm) | - (0-19% control at 400 ppm) | 0 | - (0-19% control at 400 ppm) | + (20-89% control at 400 ppm) | - (0-19% control at 400 ppm) | ++ (90-100% control at 400 ppm) | 0 | 0 | 0 | ++ (90-100% control at 400 ppm) | - (0-19% control at 400 ppm) | mortality at 400 ppm ([3]; Spodoptera eridania, SM & MA RATE 400 PPM, read-out: SAW RESULTS %): 0%; mortality at 400 ppm ([8]; Tetranychus urticae, percent mortality, SAW, SM & MA RATE 400 PPM, read-out: SM RESULTS %): 0%; mortality at 400 ppm ([9]; Aphis gossypii, SM & MA RATE 400 PPM, read-out: MA RESULTS %): 0%; mortality at 24 ppm (corn rootworm; CRW RATE 24.00 PPM, read-out: CRW RESULTS %): 0%
2 | Fc1cccc2c(NCCc3ccccc3)c(Br)cnc12 [Example 91, 3-bromo-8-fluoro-N-(2-phenylethyl)-4-quinolinamine] | + (20-89% control at 400 ppm) | - (0-19% control at 400 ppm) | 0 | - (0-19% control at 400 ppm) | - (0-19% control at 400 ppm) | + (20-89% control at 400 ppm) | - (0-19% control at 400 ppm) | 0 | 0 | 0 | ++ (90-100% control at 400 ppm) | - (0-19% control at 400 ppm) | –
3 | CC(Cc1ccccc1)Nc1ccnc2c(F)cccc12 (stereo not drawn) [Example 92, 8-fluoro-H-(1-methyl-2-phenylethyl)-4-quinolinamine] | + (20-89% control at 400 ppm) | +++ (90-100% control at 100 ppm) | 0 | - (0-19% control at 400 ppm) | + (20-89% control at 400 ppm) | ++ (90-100% control at 400 ppm) | +++ (90-100% control at 100 ppm) | 0 | 0 | 0 | ++ (90-100% control at 400 ppm) | - (0-19% control at 400 ppm) | –
4 | Clc1cc(NCCc2ccccc2)c2cccc(Cl)c2n1 [Example 93, 2,8-dichloro-N-(2-phenylethyl)-4-quinolinamine] | - (0-19% control at 400 ppm) | + (20-89% control at 400 ppm) | 0 | - (0-19% control at 400 ppm) | + (20-89% control at 400 ppm) | - (0-19% control at 400 ppm) | - (0-19% control at 400 ppm) | 0 | 0 | 0 | - (0-19% control at 400 ppm) | - (0-19% control at 400 ppm) | –
5 | Fc1cccc2c(NCCc3ccc(Br)cc3)ccnc12 [Example 94, N-[2-(4-bromophenyl)ethyl]-8-fluoro-4-quinolinamine] | + (20-89% control at 400 ppm) | + (20-89% control at 400 ppm) | 0 | - (0-19% control at 400 ppm) | +++ (90-100% control at 100 ppm) | +++ (90-100% control at 100 ppm) | +++ (90-100% control at 100 ppm) | 0 | 0 | 100 | +++ (90-100% control at 100 ppm) | - (0-19% control at 400 ppm) | activity as miticides [8]: particularly excellent activity
6 | Fc1cccc2c(NCCc3cccc(C(F)(F)F)c3)ccnc12 [Example 95, 8-fluoro-N-[2-[3-(trifluoromethyl)phenyl]ethyl]-4-quinolinamine] | + (20-89% control at 400 ppm) | +++ (90-100% control at 100 ppm) | 20 | + (20-89% control at 400 ppm) | + (20-89% control at 400 ppm) | ++ (90-100% control at 400 ppm) | +++ (90-100% control at 100 ppm) | 0 | 0 | 0 | +++ (90-100% control at 100 ppm) | + (20-89% control at 400 ppm) | SAW RESULTS % [3]: 40%; SM RESULTS % ([8]; percent mortality, SAW): 0%; MA RESULTS % [9]: 0%; CRW RESULTS % (corn rootworm): 0%; activity against downy mildew ([10]; summary statement in the description): particularly excellent activity
7 | Fc1cccc2c(NCCc3ccc(Cl)cc3)ccnc12 [Example 96, N-[2-(4-chlorophenyl)ethyl)-8-fluoro-4-quinolinamine] | + (20-89% control at 400 ppm) | +++ (90-100% control at 100 ppm) | 100 | - (0-19% control at 400 ppm) | +++ (90-100% control at 100 ppm) | +++ (90-100% control at 100 ppm) | +++ (90-100% control at 100 ppm) | 0 | 0 | 0 | +++ (90-100% control at 100 ppm) | - (0-19% control at 400 ppm) | SAW RESULTS % [3]: 100%; SM RESULTS % ([8]; percent mortality, SAW): 0%; activity as miticides [8]: particularly excellent activity; MA RESULTS % [9]: 0%; CRW RESULTS % (corn rootworm): 0%
8 | Fc1cccc2c(NCCc3ccc(Cl)cc3Cl)cc(Cl)nc12 [Example 98, 2-chloro-N-[2-(2,4-dichlorophenyl)ethyl]-8-fluoro-4-quinolinamine] | - (0-19% control at 400 ppm) | - (0-19% control at 400 ppm) | 0 | - (0-19% control at 400 ppm) | - (0-19% control at 400 ppm) | + (20-89% control at 400 ppm) | ++ (90-100% control at 400 ppm) | 0 | 0 | 0 | ++ (90-100% control at 400 ppm) | - (0-19% control at 400 ppm) | –
9 | FC(F)(F)c1cccc2c(NCCc3ccccc3)ccnc12 [Example 99, N-(2-phenylethyl)-8-(trifluoromethyl)-4-quinolinamine] | - (0-19% control at 400 ppm) | - (0-19% control at 400 ppm) | 0 | - (0-19% control at 400 ppm) | + (20-89% control at 400 ppm) | ++ (90-100% control at 400 ppm) | +++ (90-100% control at 100 ppm) | 0 | 0 | 0 | +++ (90-100% control at 100 ppm) | - (0-19% control at 400 ppm) | –
